What is called IC50 is the point on the concentration scale where inhibition reaches its midpoint. A low value points to inhibition by little substance.

The nature of experiment [1]: Acute in vivo food intake test in mice. The following applies: 24h food intake, male or female C57BI/6 mice, high caloric diet, oral gavage 100 mg/kg/day in two half doses. Here is the method: 2. Acute in vivo food intake test in mice
The studies were carried out in male or female C57BI/6 mice (n=8-12 per group). The mice were kept on an inverted 12/12h light/dark cycle (lights on 22:00). They were allowed food (high caloric diet) and water ad libitum. Food intake and water consumption was measured daily. The test compound of general Formula I was suspended in 1% methylcellulose in water and 2% (v/v) of Poloxamer 188 (Lutrol F68®) and administered by oral gavage at a dose of 100 mg/kg/day. One half of the dose was administered at 7.00-9.00 h; the remaining half of the dose was administered between 15.00-15.30 h.
In the test model described above, the test substances caused a decrease of the animals' 24h food intake to the percentages of food intake when compared to control as given in Table 2 below. Table 2: Influence of test substances on food intake

The target in experiment [2] is T1, human carbonic anhydrase isoenzyme II (hCA II) (Homo sapiens, UniProt P00918).
T1 construct: human carbonic anhydrase isoenzyme II from erythrocytes (Sigma-Aldrich); purchased Sigma-Aldrich; host or cells: human erythrocytes (natural source)
The experiment can be described thus: biochemical. The experiment is classed as binding. The following applies: hCA II from erythrocytes 10^-7 M/L, dansylamide 2.25x10^-6, pH 7.4, 60 min preincubation, read at 60 min at 37°C, single measurements. On the procedure:
1. In vitro inhibition of human carbonic anhydrase isoenzyme II (hCA II)
The test compounds of general Formula I in 96 well microplates were diluted with aqua bidest by using an automatic pipettor (CyBiWell®). From the different dilution plates, aliquots of 20 µl were transferred to the 96 well black assay plates with a pipetting station (Tecan Genesis®). In a second step, 148 µl of potassium phosphate buffer (20 mM, pH 7.4) was added, and as a third step, 20 µl of enzyme solution (1 µM human carbonic anhydrase isoenzyme II from erythrocytes (Sigma-Aldrich), dissolved in potassium phosphate buffer) incubated for 60 min at room temperature and the fluorescence signal (Tecan Ultra® fluorescence reader; excitation wavelength: 280 nm; emission wavelength: 465 nm) read at the end of the preincubation period (FLU-1). After the preincubation time, 20 µl of aqueous dansylamide solution (1 mM dansylamide (Sigma-Aldrich), dissolved in hydrochloric acid) were added and the fluorescence signal read every 10 min for a period of 60 min at 37°C. For calculation, the fluorescence data of the time point 60 min (FLU-2) were used. The total volume of assay mixture amounted to 208 µl. […] Data were expressed as % inhibition after calculation by the formula: % inhibition = 100((1-(FLU-2_cpd-FLU-2_blank-FLU-1_cpd+FLU-1_blank)/(FLU-2_control-FLU-2_blank-FLU-1_control-FLU-1_blank)) [formula] […]

Consider `NS(=O)(=O)N1CCC2(CC1)CC(=O)c1ccccc1O2` [Example 1], for which, in experiment [1], the food intake is given as 83 % of control.

As to `NS(=O)(=O)N1CCC2(CC1)CC(=O)c1cc(Br)ccc1O2` [Example 2], the IC50 in experiment [2] is 6.6 µM.

Source of the values: patent publication EP1951725B1, “N-SULFAMOYL-N -BENZOPYRANPIPERIDINES AS INHBITORS OF CARBONIC ANHYDRASES” (Abbott Products GmbH, priority 2005, dated 2007).
